Molecules are shown by their SMILES.

From the METLIN SMRT retention time set (Domingo-Almenara et al. 2019) come the findings set out here.

This series in a line: gradient 5% acetonitrile 3 min, to 50% in 2 min, to 85% in 15 min, held 3 min, 100 µL/min. Particulars: column: Zorbax Extend-C18 2.1 x 50 mm; eluents: water / acetonitrile, 0.1% formic acid. In short, it runs like this:
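The system's dead and dwell volumes were 40 μL and 900 μL, with a Zorbax Extend-C18 column (2.1 × 50 mm, 1.8 μm) run at 100 μL/min in water and acetonitrile containing 0.1% formic acid each. Pure standards were analyzed in mixtures of ~100 molecules by HPLC–quadrupole time-of-flight mass spectrometry in positive and negative ionization mode. Retention time was assigned from computationally picked, manually inspected adduct peaks.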
`CCc1nc2cc3c(cc2n1CC(=O)Nc1ccc2c(c1)OCCO2)OCCO3` yielded an RP-LC retention time of 618 s.
Consider `Cc1ccc(S(=O)(=O)N2CCC(C)(C(=O)NCc3ccccc3)CC2)cc1`, for which the RP-LC retention time turned out to be 932 s.
The value for `O=C(CCCc1c[nH]c2ccccc12)NC1CCN(c2ccc(=O)[nH]n2)C1` (stereo not drawn) was 640 s.
The value for `COc1ccc(OCc2noc(CNC(=O)c3cccnc3)n2)cc1` was 749 s; that for `O=C(Nc1cccn2c(C3CCC3)nnc12)c1ccc(Cl)s1` was 871 s.
The value for `Cc1ccc(S(=O)(=O)NC(=O)NN2CCCCCC2)cc1` was 914 s; that for `COCCNC(=O)N1CCCN(C2=NS(=O)(=O)C(c3ccc(F)cc3)=C2C)CC1` was 669 s; that for `CCC1Oc2ccc(S(=O)(=O)N3CCC(C(=O)N(C)c4cccc(C)c4)CC3)cc2NC1=O` (stereo not drawn) was 872 s.
On to `CNC(=O)N1CCC(N2C(=O)C3(CCCCC3)C2c2ccccc2)CC1` (stereo not drawn), for which the RP-LC retention time was 783 s.
The value for `O=C(NC1CCN(c2cc(-c3cccs3)[nH]n2)C1)c1ccc2nc[nH]c2c1` (stereo not drawn) was 564 s.
The value for `O=C(Nc1ccc2c(c1)OCCO2)N1CCC(Cc2nc(-c3ccncc3)n[nH]2)C1` (stereo not drawn) was 580 s.
The same measure for `O=C(NCc1ccccc1F)C1=C2CCCN2c2ccc(F)cc2S1(=O)=O`: 868 s; for `COC(=O)c1cccc(N2C=C(C#N)S(=O)(=O)c3ccc(Cl)cc32)c1`: 930 s.
In turn, `COCC(C)(O)CNC(=O)c1ccc2nsnc2c1` (stereo not drawn) had an RP-LC retention time of 606 s.
With `CCOC(=O)c1c(C)c(CCC(=O)N2CCN(c3ccccn3)CC2)c(C)n1C`, the RP-LC retention time stood at 646 s.
The same measure for `CCN(CC)CCNC(=O)c1cc2n(n1)CCCN(Cc1ccc(F)cc1)C2=O`: 556 s; for `Cc1c(Cl)cccc1NC(=O)C(C)C1CCN(C(=O)Nc2ccccc2)CC1` (stereo not drawn): 860 s.
The same measure for `Cc1noc(-c2nn(C)c3c2CN(C(=O)Nc2ccc(Cl)cc2)CC3)n1`: 790 s.
The same measure for `Cc1ccc2oc(N3CCN(C(=O)c4ccc(-c5noc(C6CC6)n5)cc4)CC3)nc2n1`: 670 s; for `CCN1C(=O)c2cccnc2Sc2cc(CNC(=O)c3cccnc3SC)ccc21`: 721 s; for `O=C(C1CCN(c2cc(N3CCCCC3)ncn2)CC1)N1CCN(c2ccccc2)CC1`: 724 s.
Consider `Cc1ccc(CC(=O)Nc2cnn(C)c(=O)c2N2CCOCC2)cc1`, for which the RP-LC retention time is 764 s.
The value for `CC(=O)N1c2ccc(S(=O)(=O)N3CCCCCC3)cc2CC1C(=O)NCc1ccc(F)cc1` (stereo not drawn) was 890 s; that for `Cc1nn(CCCC(=O)NCCN(C)C)c(=O)c2c(-n3cccc3)n(-c3ccccc3)nc12` was 664 s; that for `CN1C(=O)Cc2cc(S(=O)(=O)NCc3ccc4c(c3)CCN4C(=O)c3ccccc3)ccc21` was 771 s.
As for `O=C(c1cccs1)N1CCC2(CC1)NC(=O)N(Cc1ccccc1)C2=O`, the RP-LC retention time stood at 741 s.
The same measure for `CC(C)C(=O)Nc1cc2c(cc1S(=O)(=O)c1ccc(F)cc1)n(C)c(=O)n2C`: 790 s; for `COc1ccc2nc(C(=O)N3CCCCC3)cc(Nc3ccc(F)c(F)c3)c2c1`: 720 s; for `CCCn1c(=O)sc2cc(S(=O)(=O)N3CCC(C(=O)Nc4ccc(C)c(C)c4)CC3)ccc21`: 1030 s.
The value for `COc1ccccc1C(=O)NC1CCN(c2cc(-c3cccs3)[nH]n2)C1` (stereo not drawn) was 717 s.
Compound `Cc1c(C(=O)Nc2ccccc2)cnc2nc(-c3ccncc3)nn12` showed an RP-LC retention time of 594 s.
The same measure for `O=C1CCN(S(=O)(=O)c2ccccc2)CCCN(S(=O)(=O)c2cccc(F)c2)CCN1`: 795 s; for `CCc1ccc2c(c1)-c1ccccc1S(=O)(=O)N2CC(=O)NCCN1CCOCC1`: 671 s; for `CCOCCCN1C(=O)CN(C2CCCCCC2)C(=O)C1c1ccc(OCC)c(OC)c1` (stereo not drawn): 925 s.
The same measure for `COCCNC(=O)Nc1ccc(CCc2nc3ccccc3n2C)cc1`: 583 s.
The value for `CCn1ccc2sc(C)c(C(=O)NCc3ccc(OC)cc3OC)c2c1=O` was 814 s.
As to `c1ccc(-c2nc(C3CC3)no2)c(OC2CNC2)c1`, the RP-LC retention time came out at 614 s.
For the compound `Cc1ccc2c(c1)N(Cc1nc(-c3ccc(OC(F)(F)F)cc3)no1)C(=O)CO2`, the RP-LC retention time was 1210 s.
The same measure for `O=C(c1ccc(F)c(Cl)c1)N1CCC2(CC1)N=C(c1ccccc1)NO2`: 800 s.
The value for `CCOC(=O)CNC(=O)N1CCCC1c1cccc(C)c1` (stereo not drawn) was 784 s; that for `O=C(NC1CCCC1)C1CC(=O)N(CCc2c[nH]c3ccc(Cl)cc23)C1` (stereo not drawn) was 769 s.
The same measure for `COc1ccc(-c2nc3cnccn3c2Nc2ccc(C(=O)NCCN(C)C)cc2)cc1OC`: 576 s.
On to `O=S(=O)(Nc1ccccc1)c1cccc(-c2nc(-c3ccccc3)no2)c1`, for which the RP-LC retention time came to 1210 s.
The compound `Cc1cccc(-c2nc(C3CCN(S(=O)(=O)c4cccc(F)c4)CC3)no2)c1` had an RP-LC retention time of 1170 s.
The same measure for `Cc1cccc(-n2c(=O)c3sccc3n(Cc3nc(-c4ccccc4Cl)no3)c2=O)c1`: 1010 s.
The value for `CC1CCN(CC[C@H]2CCCN2S(=O)(=O)c2cccc(O)c2)CC1` was 646 s; that for `O=S(=O)(c1cccc2cccnc12)N1CC[C@@H]2COCCN(Cc3ccccc3)[C@@H]2C1` was 664 s; that for `CC(C)n1c(=O)n(CC(=O)NC2CCCc3ccccc32)c2cc(S(=O)(=O)N3CCCC3)ccc21` (stereo not drawn) was 927 s.
The value for `O=C(CN1C(=O)CCS(=O)(=O)c2ccccc21)Nc1ccc(Br)cc1` was 774 s; that for `CN1c2cc(F)ccc2C(=O)NC12CCN(C(=O)c1ccccc1F)CC2` was 751 s; that for `CC(C)Cn1c(=O)c2cc(C(=O)NC(C)c3cccs3)nn2c2ccccc21` (stereo not drawn) was 1050 s.
In turn, `COc1ccc(Cl)cc1NC(=O)N1CCCC(C)(C(=O)NCc2ccccc2)C1` (stereo not drawn) gave an RP-LC retention time of 998 s.
The same measure for `O=C(Nc1ccccc1F)N1CCC(n2cnc3c(Cl)cccc3c2=O)CC1`: 828 s; for `COc1ccc(Nc2nc(N3CCN(CCO)CC3)nc3c2C(=O)CCC3)cc1`: 637 s.
The same measure for `CC1(C(=O)NCc2ccccc2)CN(S(=O)(=O)c2ccccc2)CC(=O)N1c1cccc(Cl)c1` (stereo not drawn): 958 s.
The value for `O=C(NCCCN1CCOCC1)c1c(OCC2CC2)cc(=O)n2c1CCCCC2` was 568 s; that for `CC(C)N1C(=O)c2cccnc2Sc2cc(NC(=O)C3CCCCC3)ccc21` was 920 s; that for `COc1ccc2c(CCNc3nc(-c4ccc(C5CCCCC5)cc4)cs3)c[nH]c2c1` was 1250 s.
In turn, `COCCN1CCC(N2CCN(S(=O)(=O)c3ccc(OC)c(Cl)c3)CC2)C1=O` (stereo not drawn) displayed an RP-LC retention time of 583 s.
Compound `CCOC(=O)c1ccc(NS(=O)(=O)c2cc3n(c2)CCCN(CC)C3=O)cc1` registered an RP-LC retention time of 759 s.
The value for `COc1cccc(C2=Nc3cccnc3N(CC(=O)NCc3ccco3)C(=O)C2)c1` was 809 s; that for `CCc1ccc2c(c1)cc(S(=O)(=O)c1ccccc1)c(=O)n2CC(=O)NC1CCCC1` was 942 s; that for `CC(=O)Nc1ccc(N(Cc2nnc3n2CCCCC3)C(=O)Nc2ccc(Cl)cc2)cc1` was 690 s.
The same measure for `CCCNC(=O)C1CCN(c2ccc(SCC(=O)Nc3ccc(F)c(F)c3)nn2)CC1`: 665 s; for `CCOc1ccc(N2CC(c3nc(-c4ccc(OC)cc4OC)no3)CC2=O)cc1` (stereo not drawn): 902 s.
The value for `CCCNC(=O)N1CCC(c2noc(-c3ccccc3)n2)C1` (stereo not drawn) was 763 s; that for `CC1Cc2cc(-c3cc(CC(=O)NCc4ccco4)no3)ccc2O1` (stereo not drawn) was 616 s.
Consider `CCOc1ccc(S(=O)(=O)N2CCC(C(=O)N3CCN(C)CC3)CC2)cc1C`, for which the RP-LC retention time stood at 654 s.
The value for `O=C(c1ccc2c(c1)CCCN2S(=O)(=O)c1ccc(Cl)cc1)N1CCOCC1` was 880 s; that for `COc1nc2ccccc2nc1N1CCCC(C(=O)NC2CCCC2)C1` (stereo not drawn) was 1000 s.
The same measure for `Cc1noc(-c2nn(C)c3c2CN(C(=O)C2CCCC2)CC3)n1`: 722 s.
Compound `Cc1cccc(Nc2nc(C(=O)NCCc3cccs3)nc3ccccc23)c1` had an RP-LC retention time of 863 s.
`COc1ccc(N2C(=O)N[C@@H]3C[C@]2(C)Oc2ccc(C)cc23)cc1OC` registered an RP-LC retention time of 735 s.
The same measure for `NC(=O)c1ccccc1OCC(=O)Nc1ccc(Cl)c(Cl)c1`: 895 s.
The value for `COc1ccc(CN2C=C(C(=O)OCc3nc(-c4cccs4)no3)C(C)=NS2(=O)=O)cc1` was 1090 s; that for `Cn1cc(CCN2CCC(C(=O)NCc3cccc(F)c3)CC2)c2cccnc21` was 599 s; that for `CCCn1cc(CCNS(=O)(=O)c2ccc(Cl)s2)c2cccnc21` was 899 s.
The same measure for `Cc1ccc(C(=O)N2CCCC2c2nc(-c3cccc(Cl)c3)no2)c(C)c1` (stereo not drawn): 1200 s.
